# Results published in patent US20200158718A1, “A METHOD FOR PREDICTING TIME-TO-VIRAL CLEARANCE IN PATIENTS WITH CHRONIC HEPATITIS C VIRUS (HCV) INFECTION UNDER DIRECT ACTING ANTIVIRAL (DAA) THERAPY” (priority 2017, published 2020).
# Several values for one entry are separate records, joined by “and”; a condition that tells them apart may be missing. Equal entries are not always repeated.
# Legend:
# Format in all cases: in vivo, human
# [1] = tested on: hepatitis C virus (HCV); assay: Observational trial (training set): HCV-RNA / virological response of chronic HCV patients under DAA therapy; conditions: for HCV-RNA EOT / HCV-RNA wk 4 / HCV-RNA SVR12: one line per patient (Table 3); for HCV-RNA EOT: end of treatment; for HCV-RNA wk 4: week 4 of therapy; for HCV-RNA SVR12: week 12 after end of treatment; for Response to DAA Therapy: one line per patient (Table 1, patients 1-23), SVR12 = undetectable HCV-RNA at week 12 after end of treatment, relapse = undetectable at EOT but detectable during follow-up, patients 5, 9 treated 24 weeks, patients 18, 23 treated 8 weeks
# Protocol: The expression “time-to-viral clearance” indicates the period until no HCV RNA detection with currently available detection methods, e.g. as measured by PCR, particularly by quantitative real-time PCR in peripheral blood samples, e.g. in samples of at least 5 ml EDTA blood or whole blood is possible. Using a standard PCR-based test, fewer than 12 copies per milliliter blood is considered to be clinically clear of HCV (Table 3).
# (§1) Peripheral blood samples were provided by patients with chronic HCV infection, who were participating in an observational trial (clinicaltrials.gov: NCT02904603) authorized by the local ethics committee. For a training trial, 23 patients (genotype 1a (n=10), 1b (n=9) and 3 (n=4)) were treated with daclatasvir plus sofosbuvir (DCV/SOF; n=15), ledipasvir plus sofosbuvir (LDV/SOF; n=4) or with ritonavir-boosted paritaprevir, ombitasvir, and dasabuvir (n=4).
# (§2) A sustained virological response to DAA therapy is generally achieved in 85-99% of chronic HCV patients, depending upon viral genotype, patient-related factors and the choice of treatment regime. In the present study of 23 patients with chronic HCV infection, 22 had achieved a sustained virological response at 12 weeks post-treatment (SVR12). Clearance of virus was associated with improved liver function and reduction in systemic markers of liver inflammation. Although most patients achieved sustained virological responses by 12 weeks, there was considerable variation in time to HCV RNA negativity and normalization of biochemical parameters. Baseline mean HCV RNA titer was 6.12±0.12 log 10 IU/ml, falling to 1.2±0.14 log 10 IU/ml by 4 weeks, at which time 12/23 patients were HCV RNA <12 IU/ml. HCV establishes persistent infections during which virus-specific CD4+ and CD8+ T cells become impaired through progressive functional exhaustion or clonal deletion, and intrahepatic NK cell responses are subdued. […] In particular, this study aimed to identify a minimal set of immunological markers that accurately classified patients with chronic HCV infections as “fast responders” (i.e. HCV RNA <12 IU/ml by 4 weeks) or “slow responders” (i.e. HCV RNA >12 IU/ml at 4 weeks, irrespective of later outcome). These biomarkers were to be independent of viral genotype, baseline fibrosis score, previous HCV treatment, and other patient-related factors. Therefore, the influence of the ALT levels, of the HCV genotype, of a previous treatment for chronic HCV, and the pre-treatment fibrosis score were also analyzed.
# [2] = tested on: ALT, alanine aminotransferase; assay: Observational trial (training set): ALT level of chronic HCV patients under DAA therapy; conditions: one line per patient (Table 3); for ALT level EOT: end of treatment; for ALT level wk 4: week 4 of therapy; for ALT level SVR12: week 12 after end of treatment
# Protocol: as §1, §2
# [3] = tested on: hepatitis C virus (HCV); assay: Prospective set: HCV-RNA at week 4 of DAA therapy in a further 10 chronic HCV patients; conditions: one line per patient (Table 5, prospective set)
# Source text: To verify that the model accurately predicted fast and slow responses, data were collected from a further 10 chronic HCV patients prior to DAA treatment (Table 5). In this “prospective set”, 8 patients were slow responders and 2 were fast responders: all slow responders were correctly classified as such (Table 2D). The model also correctly identified 1 of 2 fast responders. […] For the purpose of prospectively and safely shortening DAA therapy, a test with high specificity is more important than one with high sensitivity.
# To verify that the herein disclosed model accurately predicts fast and slow responses, data were collected from a further 10 chronic HCV patients prior to DAA treatment (cf. the Table 5 below).
Substance,HCV-RNA EOT [1],HCV-RNA wk 4 [1],HCV-RNA SVR12 [1],ALT level EOT [2],ALT level wk 4 [2],ALT level SVR12 [2],Response to DAA Therapy wk 4 [3],Response to DAA Therapy [1]
daclatasvir plus sofosbuvir [SOF + DCV],neg. (7×) and <12 IU/ml (8×),<12 IU/ml (4×) and neg,neg.,44 U/L and 46 U/L and 24 U/L and 45 U/L and 61 U/L and 42 U/L and 30 U/L and 70 U/L and 17 U/L and 23 U/L (2×) and 47 U/L and 22 U/L and 19 U/L and 31 U/L,38 U/L and 42 U/L and 27 U/L and 51 U/L and 47 U/L and 34 U/L (2×) and 25 U/L and 62 U/L and 22 U/L and 31 U/L and 28 U/L and 29 U/L and 24 U/L and 23 U/L,31 U/L and 35 U/L and 21 U/L (3×) and 41 U/L and 37 U/L and 43 U/L and 24 U/L and 62 U/L and 17 U/L and 107 U/L and 25 U/L and 23 U/L and 42 U/L,30 IU/ml,–
ledipasvir plus sofosbuvir [SOF + LDV],neg.,<12 IU/ml,neg.,31 U/L and 64 U/L and 23 U/L and 24 U/L,31 U/L and 74 U/L and 22 U/L and 24 U/L,27 U/L and 32 U/L and 21 U/L and 10 U/L,61 IU/ml and <12 IU/ml (2×) and 51 IU/ml and 12 IU/ml (2×) and 14 IU/ml,SVR12
"ritonavir-boosted paritaprevir, ombitasvir, and dasabuvir [3D]",neg.,neg,neg.,21 U/L and 15 U/L and 23 U/L,24 U/L and 17 U/L and 19 U/L,24 U/L and 21 U/L,–,SVR12
